Source: patent publication US10273279B2, “Protease activated receptor-1 (PAR1) derived cytoprotective polypeptides and related methods” (THE SCRIPPS RESEARCH INSTITUTE, priority 2011, dated 2019)
Positions count from the first letter of the chain named. “Also recorded” adds a separate entry of the source. Values belong to the substance of their own block, whether it stands above or below them.

Assays:
[1] = test system: Rac1 in endothelial EA.hy.926 cells; assay: Rac1 activation (GST-PAK1 pull down of active GTP-Rac1); type: cell-based, human; conditions: peptides 50 μM, 30 or 180 min
Method: Some assays employed in this study were performed as follow. Rac1 activation. The pGEXTK-PAK1 70-117 construct encoding a GST fusion to p21-activated kinase (PAK-1)-binding domain (PBD) was kindly made available by Dr. J Chernoff (Addgene plasmid 12217). GST-PAK1 was purified from transformed BL21 (DE3) Escherichia coli using B-Per lysis buffer (Pierce) with lysozyme, DNAse 1 and Halt EDTA-free protease inhibitor cocktail (Pierce) on Glutathione-agarose according to the manufacturer's recommendation. Pull down of active Rac1 was performed as described in Pellegrin et al., Curr. Protoc. Cell Biol. 2008; Chapter 14:Unit 14.8. Briefly, endothelial EA.hy.926 cells (5*10^6 per plate) were grown in 100-mm dishes for 48 hr and serum starved overnight before addition of peptides (50 μM) for 30 or 180 min. Lysates (2 mg) were mixed with GST-PAK1 Glutathione-agarose (150 μg) and after washing active GTP-Rac1 was eluted from GST-PAK1 Glutathione-agarose by boiling in reducing SDS sample buffer (LI-COR). Active GTP-Rac1 was resolved on 12% SDS PAGE, transferred to Immobilon-FL PVDF membrane, and immunoblotted with a mouse anti-Rac1 antibody (BD Bioscience) and IRDye 800CW donkey anti-mouse secondary antibodies (LI-COR). Immunoblots were scanned on the Odyssey Imager (LI-COR). Quantification of integrated fluorescence intensity (K counts) was done using Odyssey Application Software v3.0 (LI-COR).

SEAP-PAR1 [2] = molecular target: T1, SEAP-PAR1 (Homo sapiens, UniProt P25116, R41A); assay: SEAP-PAR1 cleavage reporter on transfected HEK-293 cells (SEAP release); type: cell-based; conditions: in the absence of EPCR
T1 construct: we created a full-length PAR-1 construct linked at the N-terminus to an alkaline phosphatase reporter group (SEAP); expressed in transfected cells
T1 sequence (P25116 22-425 R41A): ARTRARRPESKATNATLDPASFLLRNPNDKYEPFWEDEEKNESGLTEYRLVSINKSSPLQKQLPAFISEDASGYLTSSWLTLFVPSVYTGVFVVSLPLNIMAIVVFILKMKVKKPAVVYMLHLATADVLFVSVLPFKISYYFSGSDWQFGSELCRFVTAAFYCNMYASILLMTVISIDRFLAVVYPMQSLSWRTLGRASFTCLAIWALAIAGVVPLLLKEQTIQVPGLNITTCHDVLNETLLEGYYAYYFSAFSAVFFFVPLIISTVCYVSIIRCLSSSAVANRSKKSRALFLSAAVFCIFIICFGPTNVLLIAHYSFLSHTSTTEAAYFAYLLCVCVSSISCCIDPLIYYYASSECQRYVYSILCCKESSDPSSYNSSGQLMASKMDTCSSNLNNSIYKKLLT
From the text: (§1) To facilitate analysis of APC-mediated PAR-1 activation, we created a full-length PAR-1 construct linked at the N-terminus to an alkaline phosphatase reporter group (SEAP). Selection of stable cell lines expressing both endothelial protein C receptor (EPCR) (wt or E86A) and SEAP-PAR1 allowed for a reliable and reproducible analysis of EPCR-dependent PAR-1 activation by APC. Mass-spec analysis of cleavage fragments generated by APC of a synthetic PAR-1 N-terminal tail peptide (TR33-62) identified both Arg^41 and Arg^46 as potential cleavage sites for APC proteolysis, as noted above. […] R41Q-SEAP-PAR1 was cleaved by APC in the presence of EPCR. This surprising result was also obtained for R41A-SEAP PAR1.
(§2) 2009; 113:5970-5978. SEAP-PAR1, either in the presence or absence of wt-EPCR, were transfected into HEK-293 cells to obtain stable cells expressing SEAP-PAR1 or wt-EPCR/SEAP-PAR1. Mutations in SEAP-PAR1 were introduced using the Quickchange method (Agilent). Cells were grown in 96-wells plates to confluency in Dulbeco's modified Eagle media (DMEM): Ham's F-12 (Invitrogen) supplemented with penicillin-streptomycin-glutamine (PSG) (Gibco) and 10% fetal bovine serum (Omega) in a humidified atmosphere at 37° C. and 5% CO2 Cells were washed with Hank's balanced salt solution (HBSS; Invitrogen) supplemented with 1.3 mM CaCl2, 0.6 mM MgCl2 and 0.1% endotoxin free BSA (Calbiochem) and incubated with APC. After 60 min, SEAP release was determined using 1-step PNPP (Pierce). Values were corrected for background activity derived from the same cells incubated in the absence of APC and expressed as a percentage of total SEAP available on the cell membrane.

SEAP-PAR1 [3] = molecular target: T2, SEAP-PAR1 (Homo sapiens, UniProt P25116, R41Q/R46Q); assay: as above; type: cell-based; conditions: cells with wt-EPCR
T2 construct: we created a full-length PAR-1 construct linked at the N-terminus to an alkaline phosphatase reporter group (SEAP); expressed in transfected cells
T2 sequence (P25116 22-425 R41Q/R46Q): T1 sequence (P25116 22-425 R41A) with A20Q, R25Q
From the text: as §1, §2

SEAP-PAR1 [4] = assay: as above; type: cell-based, human; conditions: in the absence of EPCR
From the text: as §1, §2

SEAP-PAR1 [5] = molecular target: T3, SEAP-PAR1 (Homo sapiens, UniProt P25116, R41Q); assay: as above; type: cell-based; conditions: in the presence of EPCR
T3 construct: we created a full-length PAR-1 construct linked at the N-terminus to an alkaline phosphatase reporter group (SEAP); expressed in transfected cells
T3 sequence (P25116 22-425 R41Q): T1 sequence (P25116 22-425 R41A) with A20Q
From the text: as §1, §2

Substance: NPNDKYEPFWEDEEKNESGL (listed as Homo sapiens) [TR47-66]
activation of Rac1 [1]: induced APC-like activation of Rac1

cleavage of R41A-SEAP-PAR1 (SEAP-PAR1 [2]): did not cleave
Substance: APC: Activated Protein C, serine protease with anticoagulant and cytoprotective cell signaling activities
cleavage of R41Q/R46Q-SEAP-PAR1 (SEAP-PAR1 [3]): eliminated PAR-1 cleavage; also recorded: negligible | cleavage of wt-SEAP-PAR1 and R46Q-SEAP-PAR1 (SEAP-PAR1 [4]): did cleave

cleavage of R41Q-SEAP-PAR1 (SEAP-PAR1 [5]): did not show any cleavage
Substance: thrombin
